From patent US8933228B2, “Respiratory formulations and compounds for use therein” (Respivert, Ltd., priority 2010, dated 2015)

Assays:
[1] = tested on: TNFα release in d-U937 cells; test: LPS-induced TNFα release in d-U937 cells; format: cell-based; settings: Homo sapiens, dU937, LPS 0.1 μg/mL, 4 hr, relative to 10 μg/mL BIRB796, read-out: d-U937 (LPS) TNFα REC50
Experimental: (§1) U937 cells, a human monocytic cell line, were differentiated to macrophage-type cells by incubation with phorbol myristate acetate (PMA; 100 ng/mL) for 48 to 72 hr, whereupon the cells become adherent. […] Coli: O111:B4, Sigma) for 4 hr. The supernatant was collected for determination of TNFα and IL-8 concentrations by sandwich ELISA (Duo-set, R&D systems). […] The relative 50% effective concentration (REC50) was determined from the resultant concentration-response curve. The inhibition of IL-8 production was calculated at each concentration of test compound by comparison with vehicle control.

HRV16 = test: Rhinovirus-titre assay; format: cell-based, human rhinovirus; settings: HRV16; for inhibition at 0.04 µg/mL: Human rhinovirus sp., cell not marked b, test compounds 0.04 μg/mL per method (footnote b, 0.2 μg/mL), read-out: HRV titre (inhibitory %): % inhibition observed vs. HRV16 infection control; for NBEC (HRV) HRV titre Relative anti-viral activity: at 0.04 μg/mL vs. pleconaril at 0.1 μg/mL
Experimental: MRC5 cells (human lung fibroblast, ATCC) were infected with 1 MOI (multiplicity of infection of 1.0) of HRV16 and incubated for 1 hr at 33° C. with gentle shaking to stimulate adsorption. The cells were then washed with PBS, fresh media was added and the cells were incubated for a further 96 hr. The supernatant was collected and 10-fold serial dilutions of virus containing supernatant were prepared. All titrations were performed by infecting confluent Hela cell monolayers with serially diluted supernatant (10^−1-10^−5) and assessing the cytopathic effect by visual inspection 4 days after infection. The amount of virus required to infect 50% of Hela cells was calculated in each treatment as TCID50. Test compounds (0.04 μg/mL) were added 2 hr before HRV infection and 1 hr after infection when non-infected HRV was washed out. The anti-HRV activity of each test compound was determined as the difference of the log TCID50 of HRV16 in the presence of the compound with the log TCID50 of HRV16 in the absence of compound. […]

cSrc enzyme = cSrc enzyme (Homo sapiens (Human), UniProt P12931); test: c-SRC enzyme inhibition assay (FRET, Z'-LYTE); format: biochemical; settings: read-out: Enzyme Profile: IC50 Values cSrc
p38 MAPK alpha (MAPK14) = p38 MAPK alpha (MAPK14) (Homo sapiens (Human), UniProt Q16539); test: Enzyme inhibition assay (FRET, Z-LYTE), p38 MAPK alpha via MAPKAP-K2 activation; format: biochemical; settings: read-out: Enzyme Profile: IC50 Values p38α
Experimental: (§2) The enzyme inhibitory activity of test compounds was determined by fluorescence resonance energy transfer (FRET) using synthetic peptides labelled with both donor and acceptor fluorophores (Z-LYTE, Invitrogen). Recombinant, phosphorylated p38 MAPK γ (MAPK12:Millipore) was diluted in HEPES buffer, mixed with compound at the desired final concentrations and incubated for 2 hr at RT. The FRET peptide (2 μM) and ATP (100 μM) were next added to the enzyme/compound mixture and incubated for 1 hr. Development reagent (protease) was added for 1 hr prior to detection in a fluorescence microplate reader. The site-specific protease only cleaves non-phosphorylated peptide and eliminates the FRET signal. Phosphorylation levels of each reaction were calculated using the ratio of coumarin emission (donor) over fluorescein emission (acceptor) with high ratios indicating high phosphorylation levels and low ratios indicating low phosphorylation levels.
For p38 MAPK alpha (MAPK14: Invitrogen), enzyme activity was evaluated indirectly by determining activation/phosphorylation of the down-stream molecule, MAPKAP-K2. The p38 MAPK a protein was mixed with compound for 2 hr at RT. […] Development reagent was then added and the mixture incubated for 1 hr before detection by fluorescence completed the assay protocol.
The enzyme inhibitory activity of compound was determined by fluorescence resonance energy transfer (FRET) using synthetic peptides labelled with both donor and acceptor fluorophores (Z′-LYTE, Invitrogen).

p38 MAPK γ (MAPK12) = p38 MAPK γ (MAPK12) (Homo sapiens (Human), UniProt P53778); test: Enzyme inhibition assay (FRET, Z-LYTE), p38 MAPK gamma; format: biochemical; settings: read-out: Enzyme Profile: IC50 Values p38γ
Experimental: as §2

[2] = tested on: ICAM-1 expression in BEAS2B cells; test: Poly I:C-induced ICAM-1 induction in BEAS2B cells; format: cell-based; settings: Homo sapiens, BEAS-2B; BEAS2B cells, poly I:C 1 μg/mL, 18 hr; read-out: BEAS2B (polyIC) ICAM1 IC50
Experimental: Poly I:C (1 μg/mL) (Invivogene Ltd., San Diego, Calif.) was transfected into BEAS2B cells (human bronchial epithelial cells, ATCC) with Oligofectamine (Invitrogen, Carlsbad, Calif.). Cells were pre-incubated with final concentrations of test compounds for 2 hr and the level of ICAM1 expression on the cell surface was determined by cell-based ELISA. […] The cells were washed with PBS-Tween and incubated with the secondary antibody (HRP-conjugated anti-rabbit IgG, Dako Ltd., Glostrup, Denmark).

[3] = tested on: Differentiated U937 cells; test: MTT assay: cell viability; format: cell-based, human; settings: 1 μg/ml; for d-U937 MTT Assay 4 h: 5% FCS; for d-U937 MTT Assay 24 h: 10% FCS
Experimental: Differentiated U937 cells were pre-incubated with each test compound under two protocols: the first for 4 hr in 5% FCS and the second in 10% FCS for 24 h. The supernatant was replaced with 200 μL of new media and 10 μL of MTT stock solution (5 mg/mL) was added to each well. After incubation for 1 hr the media were removed, 200 μL of DMSO was added to each well and the plates were shaken lightly for 1 hr prior to reading the absorbance at 550 nm. The percentage loss of cell viability was calculated for each well relative to vehicle (0.5% DMSO) treatment. Consequently an apparent increase in cell viability for drug treatment relative to vehicle is tabulated as a negative percentage.

[4] = tested on: TNFα release in THP-1 cells; test: LPS-induced TNFα release in THP-1 cells; format: cell-based; settings: Homo sapiens; THP-1 cells, LPS 3 μg/mL, 4 hr; read-out: THP1 (LPS) TNFα IC50
Experimental: The inhibition of TNFα production was calculated at each concentration by comparison with vehicle control.

[5] = tested on: IL-8 release in d-U937 cells; test: LPS-induced IL-8 release in d-U937 cells; format: cell-based; settings: Homo sapiens, dU937; d-U937 cells, LPS 0.1 μg/mL, 4 hr; read-out: d-U937 (LPS) IL-8 IC50
Experimental: as §1

HCK enzyme = HCK enzyme (Homo sapiens (Human), UniProt P08631); test: HCK enzyme inhibition assay (FRET, Z'-LYTE); format: biochemical; settings: read-out: Enzyme Profile: IC50 Values HCK

SMILES	EC50 [1] [µM]	inhibition at 0.04 µg/mL (HRV16) [%]	IC50 (cSrc enzyme) [µM]	IC50 (p38 MAPK alpha (MAPK14)) [µM]	IC50 (p38 MAPK γ (MAPK12)) [µM]	IC50 [2] [µM]	d-U937 MTT Assay 4 h [3]	d-U937 MTT Assay 24 h [3]	IC50 [4] [µM]	IC50 [5] [µM]	IC50 (HCK enzyme) [µM]	NBEC (HRV) HRV titre Relative anti-viral activity (HRV16)
CC(C)(C)c1cc(NC(=O)Nc2ccc(Oc3ccnc4[nH]c(=O)cnc34)c3ccccc23)n(-c2ccc(O)cc2)n1 [Example 16, 1-(3-(tert-Butyl)-1-(4-hydroxyphenyl)-1H-pyrazol-5-yl)-3-(4-((3-oxo-3,4-dihydropyrido[2,3-b]pyrazin-8-yl)oxy)naphthalen-1-yl)urea]	0.055	8	0.01	0.004	0.045	0.172	− (− and + indicate the result is below and above the no significant effect threshold, respectively (<30% inhibition at a concentration of 1 μg/ml))	− (− and + indicate the result is below and above the no significant effect threshold, respectively (<30% inhibition at a concentration of 1 μg/ml))	0.116	0.047	0.018	–
COc1ccc(-n2nc(C(C)(C)C)cc2NC(=O)Nc2ccc(Oc3ncnc4[nH]c(=O)cnc34)c3ccccc23)cc1 [Example 22]	> 1.73	8	0.406	0.017	2.62	> 0.173	− (− and + indicate the result is below and above the no significant effect threshold, respectively (<30% inhibition at a concentration of 1 μg/ml))	− (− and + indicate the result is below and above the no significant effect threshold, respectively (<30% inhibition at a concentration of 1 μg/ml))	> 1.73	> 1.73	0.458	–
CC(C)(C)c1cc(NC(=O)Nc2ccc(Oc3ccnc4[nH]c(=O)[nH]c34)c3ncccc23)n(-c2ccccc2)n1 [Example 4, 1-(3-tert-butyl-1-phenyl-1H-pyrazol-5-yl)-3-(8-(2-oxo-2,3-dihydro-1H-imidazo [4,5-b]pyridin-7-yloxy)quinolin-5-yl) urea]	0.171	60	0.0009	0.018	0.214	0.581	− (− and + indicate the result is below and above the no significant effect threshold, respectively (<30% inhibition at a concentration of 1 μg/ml))	− (− and + indicate the result is below and above the no significant effect threshold, respectively (<30% inhibition at a concentration of 1 μg/ml))	0.185	0.378	0.007	0.7
Cc1ccc(-n2nc(C(C)(C)C)cc2NC(=O)Nc2ccc(Oc3ccnc4[nH]c(=O)c(C)nc34)c3ccccc23)cc1 [Example 8, 1-(3-(tert-butyl)-1-(p-tolyl)-1H-pyrazol-5-yl)-3-(4-((2-methyl-3-oxo-3,4-dihydropyrido[2,3-b]pyrazin-8-yl)oxy)naphthalen-1-yl)urea]	0.0003	91	0.007	0.007	0.099	0.0006	− (− and + indicate the result is below and above the no significant effect threshold, respectively (<30% inhibition at a concentration of 1 μg/ml))	− (− and + indicate the result is below and above the no significant effect threshold, respectively (<30% inhibition at a concentration of 1 μg/ml))	0.0025	0.0017	0.005	–
COc1ccc(-n2nc(C(C)(C)C)cc2NC(=O)Nc2ccc(Oc3ccnc4[nH]c(=O)[nH]c34)c3ncccc23)cc1 [Example 14, 1-(3-(tert-Butyl)-1-(4-methoxyphenyl)-1H-pyrazol-5-yl)-3-(8-((2-oxo-2,3-dihydro-1H-imidazo[4,5-b]pyridin-7-yl)oxy)quinolin-5-yl)urea]	0.166	8	0.0008	0.005	0.18	0.675	− (− and + indicate the result is below and above the no significant effect threshold, respectively (<30% inhibition at a concentration of 1 μg/ml))	− (− and + indicate the result is below and above the no significant effect threshold, respectively (<30% inhibition at a concentration of 1 μg/ml))	0.163	0.726	< 0.002	1.5
COc1ccc(-n2nc(C(C)(C)C)cc2NC(=O)Nc2ccc(Oc3ccnc4[nH]c(=O)[nH]c34)c3ccccc23)cc1 [Example 9]	0.0031	36	0.007	0.021	0.119	0.024	− (− and + indicate the result is below and above the no significant effect threshold, respectively (<30% inhibition at a concentration of 1 μg/ml))	− (− and + indicate the result is below and above the no significant effect threshold, respectively (<30% inhibition at a concentration of 1 μg/ml))	0.0016	0.027	< 0.002	3.2
Cc1nc2c(Oc3ccc(NC(=O)Nc4cc(C(C)(C)C)nn4-c4ccccc4)c4ccccc34)ccnc2[nH]c1=O [Example 7, 1-(3-(tert-butyl)-1-phenyl-1H-pyrazol-5-yl)-3-(4-((2-methyl-3-oxo-3,4-dihydropyrido[2,3-b]pyrazin-8-yl)oxy)naphthalen-1-yl)urea]	0.0017	60	0.007	0.003	0.1	0.003	− (− and + indicate the result is below and above the no significant effect threshold, respectively (<30% inhibition at a concentration of 1 μg/ml))	− (− and + indicate the result is below and above the no significant effect threshold, respectively (<30% inhibition at a concentration of 1 μg/ml))	0.007	0.0042	0.003	–
